Test results from ChEMBL document CHEMBL4616645, “Dysidealactams and Dysidealactones: Sesquiterpene Glycinyl-Lactams, Imides, and Lactones from a Dysidea sp. Marine Sponge Collected in Southern Australia” (J Nat Prod, 2020).
Active and inactive are the calls of the source.

Legend:
Bacillus subtilis = assay: Antibacterial activity against Bacillus subtilis ATCC 6051 assessed as reduction In microbial growth up to 30 uM after 24 hrs by spectrophotometric method; format: functional, organism-based
NCI-H460 = assay: Cytotoxicity against human NCI-H460 cells assessed as reduction in cell viability up to 30 uM uM after 48 hrs by MTT assay; format: functional, cell-based
Escherichia coli = assay: Antibacterial activity against Escherichia coli ATCC 11775 assessed as reduction In microbial growth up to 30 uM after 24 hrs by spectrophotometric method; format: functional, organism-based
SW-620 = assay: Cytotoxicity against human SW620 cells assessed as reduction in cell viability up to 30 uM after 48 hrs by MTT assay; format: functional, cell-based
Candida albicans = assay: Antifungal activity against Candida albicans ATCC 10231 assessed as reduction In microbial growth up to 30 uM after 24 hrs by spectrophotometric method; format: functional, organism-based

Measured: Activity

CC1(C)CCC[C@]2(C)C3=C(CC[C@@H]12)C(=O)N(CC(=O)O)C3=O
inactive: all assays above

CC1(C)CCC[C@]2(C)C3=C(CC[C@@H]12)C(O)OC3=O (stereo not given in full)
inactive: all assays above

CCO[C@H]1C2=C(CC[C@H]3C(C)(C)CCC[C@]23C)C(=O)N1CC(=O)O
inactive: all assays above

CC1(C)CCC[C@]2(C)C3=C(CC[C@@H]12)C(=O)OC3O (stereo not given in full)
inactive: all assays above

CC1(C)CCC[C@]2(C)C3=C(CC[C@@H]12)C(=O)N(CC(=O)O)[C@H]3O
inactive: all assays above

CC1(C)CCC[C@]2(C)C3=C(CC[C@@H]12)C(=O)N(CC(=O)O)C3
inactive: all assays above

CCO[C@@H]1C2=C(CC[C@H]3C(C)(C)CCC[C@]23C)C(=O)N1CC(=O)O
inactive: all assays above

CC1(C)CCC[C@]2(C)C3=C(CC[C@@H]12)C(=O)NC3=O
inactive: all assays above

CC1(C)CCC[C@]2(C)C3=C(CC[C@@H]12)C(=O)N(CC(=O)O)[C@@H]3O
inactive: all assays above

CC1(C)CCC[C@]2(C)C3=C(CC[C@@H]12)CN(CC(=O)O)C3=O
inactive: all assays above
